# According to the PolyMetriX glass transition set:
row,glass transition temperature [°C],Structure (SMILES)
1,155.00,*C(=O)c1ccc(Oc2ccc(-c3ccc(Oc4ccc(C(=O)c5ccc6nc(*)ccc6c5)cc4)cc3)cc2)cc1 (repeat unit)
2,174.00,*Oc1ccc(-c2ccc(-c3ccc(Oc4ccc(C(=O)c5cccc(C(=O)c6ccc(*)cc6)c5)cc4)cc3)cc2)cc1 (repeat unit)
3,214.00,*Oc1ccc(-c2ccc(Oc3ccc(Oc4ccc(S(=O)(=O)c5ccc(Oc6ccc(*)cc6)cc5)cc4)cc3)c3ccccc23)c2ccccc12 (repeat unit)
4,153.00,*Oc1ccc(C(C)(C)c2ccc(Oc3ccc(C(=O)c4cccc(C(=O)c5ccc(*)cc5)c4)cc3)cc2)cc1 (repeat unit)
5,210.50,*Oc1ccc(C(C)(C)c2ccc(Oc3ccc(C(=O)c4cccc5cccc(C(=O)c6ccc(*)cc6)c45)cc3)cc2)cc1 (repeat unit)
6,172.00,*Oc1ccc(C(C)(C)c2ccc(Oc3ccc(C(=O)c4ccccc4-c4ccccc4C(=O)c4ccc(*)cc4)cc3)cc2)cc1 (repeat unit)
7,159.00,*Oc1ccc(C(c2ccc(Oc3ccc(C(=O)c4cccc(-c5cccc(C(=O)c6ccc(*)cc6)c5)c4)cc3)cc2)(C(F)(F)F)C(F)(F)F)cc1 (repeat unit)
8,212.00,*Oc1ccc(C2(c3ccc(Oc4ccc(C(=O)c5cccc(-c6cccc(C(=O)c7ccc(*)cc7)c6)c5)cc4)cc3)c3ccccc3-c3ccccc32)cc1 (repeat unit)
9,217.00,*Oc1ccc(C2(c3ccc(Oc4ccc(C(=O)c5cccc(C(=O)c6ccc(*)cc6)c5)cc4)c(C)c3)c3ccccc3-c3ccccc32)cc1C (repeat unit)
10,218.00,*Oc1ccc(N(c2ccccc2)c2ccc(-c3ccc(N(c4ccccc4)c4ccc(*)cc4)cc3)cc2)cc1 (repeat unit)
11,180.00,*Oc1ccc(NC(=O)c2cccc(C(=O)Nc3ccc(Oc4ccc(C(C)(C)c5cccc(C(C)(C)c6ccc(*)cc6)c5)cc4)cc3)c2)cc1 (repeat unit)
12,145.00,*Oc1ccc(Nc2ccc(S(=O)(=O)c3ccc(Nc4ccc(Oc5ccc(C(C)(C)c6ccc(*)cc6)cc5)cc4)cc3)cc2)cc1 (repeat unit)
13,192.00,*Oc1ccc(Oc2ccc(Oc3ccc(S(=O)(=O)c4ccc(*)cc4)cc3)cc2)cc1 (repeat unit)
14,259.00,*Oc1ccc(Oc2ccc(S(=O)(=O)c3ccc(-c4ccc(-c5ccc(S(=O)(=O)c6ccc(*)cc6)cc5)cc4)cc3)cc2)cc1 (repeat unit)
15,138.00,*Oc1ccc(Oc2ccc(S(=O)c3ccc(Oc4ccc(Oc5cccc(*)n5)cc4)cc3)cc2)cc1 (repeat unit)
16,230.00,*Oc1ccc(S(=O)(=O)c2ccc(Oc3ccc(C(c4ccccc4)(c4ccccc4)c4ccc(*)cc4)cc3)cc2)cc1 (repeat unit)
17,230.00,*Oc1ccc(S(=O)(=O)c2ccc(Oc3ccc(C4(c5ccc(*)cc5)CCCC4)cc3)cc2)cc1 (repeat unit)
18,283.00,*c1ccc(Oc2ccc(C(=O)c3ccc(Oc4ccc(-c5c6c(c(*)c7ccccc57)C(=O)N(C)C6=O)cc4)cc3)cc2)cc1 (repeat unit)
19,147.00,*c1ccc(Oc2ccc(C(=O)c3ccc(Oc4ccc(-c5c6c(c(*)c7ccccc57)C(=O)N(CCCCCCCCCCCC)C6=O)cc4)cc3)cc2)cc1 (repeat unit)
20,218.00,*c1ccc(Oc2ccc(C(=O)c3ccc(Oc4ccc(C5(*)OC(=O)c6ccccc65)cc4)cc3)cc2)cc1 (repeat unit)
21,243.00,*c1ccc(Oc2ccc(C(=O)c3cccc(C(=O)c4ccc(Oc5ccc(-c6c7c(c(*)c8ccccc68)C(=O)N(c6ccc(F)cc6)C7=O)cc5)cc4)c3)cc2)cc1 (repeat unit)
22,230.00,*c1ccc(Oc2ccc(C(=O)c3cccc(C(=O)c4ccc(Oc5ccc(-c6nc(-c7ccccc7)[nH]c6*)cc5)cc4)c3)cc2)cc1 (repeat unit)
23,150.00,*c1ccc(Oc2ccc(C(C)(C)c3ccc(Oc4ccc(N5C(=O)CC(=O)N(*)C5=S)cc4)cc3)cc2)cc1 (repeat unit)
24,227.50,*c1ccc(Oc2ccc(C(C)(C)c3ccc(Oc4ccc(N5C(=O)c6ccc(Oc7ccc8c(c7)C(=O)N(*)C8=O)cc6C5=O)cc4)cc3)cc2)cc1 (repeat unit)
25,288.00,*c1ccc(Oc2ccc(C(c3ccc(Oc4ccc(-c5nnc(*)c6c(-c7ccc(F)cc7)c(-c7ccc(F)cc7)c(-c7ccc(F)cc7)c(-c7ccc(F)cc7)c56)cc4)cc3)(C(F)(F)F)C(F)(F)F)cc2)cc1 (repeat unit)
26,211.00,*c1ccc(Oc2ccc(C(c3ccc(Oc4ccc(-c5nnc(*)n5-c5ccc(S(=O)(=O)c6ccccc6)cc5)cc4)cc3)(C(F)(F)F)C(F)(F)F)cc2)cc1 (repeat unit)
27,277.00,*c1ccc(Oc2ccc(C3(c4ccc(Oc5ccc(-c6nc(-c7ccccn7)nnc6*)cc5)cc4)c4ccccc4-c4ccccc43)cc2)cc1 (repeat unit)
28,271.00,*c1ccc(Oc2ccc(Oc3ccc(-n4c(=O)c5cc6c(=O)n(*)c(=O)c6cc5c4=O)cc3)cc2-c2ccccc2)cc1 (repeat unit)
29,261.00,*c1cccc(C(=O)Nc2ccc(Oc3ccc(C(C)(C)c4ccc(Oc5ccc(NC(=O)c6cccc(N7C(=O)c8ccc(-c9cccc%10c9C(=O)N(*)C%10=O)cc8C7=O)c6)cc5)cc4)cc3)cc2)c1 (repeat unit)

# More lines, now with the values behind:
row,Structure (SMILES),glass transition temperature [°C]
1,*C(=O)Nc1ccc(Oc2ccc(C(C)(C)c3ccc(Oc4ccc(NC(=O)c5ccc6c(c5)C(=O)N(c5ccc(-c7sc(-c8ccc(N9C(=O)c%10ccc(*)cc%10C9=O)cc8)c(-c8ccccc8)c7-c7ccccc7)cc5)C6=O)cc4)cc3)cc2)cc1 (repeat unit),287.00
2,*C(=O)c1ccc(Oc2ccc(C(C)(C)c3ccc(Oc4ccc(*)s4)cc3)cc2)cc1 (repeat unit),151.00
3,*C(=O)c1ccc2c(c1)C(=O)N(c1ccc(Oc3ccc(C(C)(C)c4ccccc4)cc3)c(N3C(=O)c4ccc(*)cc4C3=O)c1)C2=O (repeat unit),267.00
4,*C(=O)c1ccc2c(c1)C(=O)N(c1ccc(Oc3ccc(S(=O)(=O)c4ccc(C)cc4)cc3)c(N3C(=O)c4ccc(*)cc4C3=O)c1)C2=O (repeat unit),293.00
5,*Oc1c(C(C)C)cc(C(=O)c2cccc(C(=O)c3ccc(*)cc3)c2)cc1C(C)C (repeat unit),132.00
6,*Oc1cc(OC(=O)c2ccc(Oc3ccc(C4(c5ccc(Oc6ccc(C(*)=O)cc6)cc5)CCC(C(C)(C)C)CC4)cc3)cc2)ccc1C12CC3CC(CC(C3)C1)C2 (repeat unit),180.00
7,*Oc1ccc(C(C)(C)c2ccc(Oc3ccc(C(=O)c4ccc(C(c5ccc(C(=O)c6ccc(*)cc6)cc5)(C(F)(F)F)C(F)(F)F)cc4)cc3)cc2)cc1 (repeat unit),181.00
8,*Oc1ccc(C2(C)CCC(C(C)(C)c3ccc(Oc4ccc(C(=O)c5ccc(*)cc5)cc4)cc3)CC2)cc1 (repeat unit),200.00
9,*Oc1ccc(C2(c3ccc(OC(=O)c4ccc(Oc5ccc(C6(c7ccc(Oc8ccc(C(*)=O)cc8)cc7)CCC(C(C)(C)C)CC6)cc5)cc4)cc3)CCCCCCCCCCC2)cc1 (repeat unit),181.00
10,*Oc1ccc(C2(c3ccc(Oc4ccc(C(=O)c5cccc(C(=O)c6ccc(*)cc6)c5)cc4)c(C)c3)CCC3CCCCC3C2)cc1C (repeat unit),185.00
11,*Oc1ccc(Oc2ccc(S(=O)(=O)c3ccc(*)cc3)cc2)cc1 (repeat unit),210.00
12,*Oc1ccc(P(C)(=O)c2ccc(Oc3ccc(C(C)(C)c4ccc(*)cc4)cc3)cc2)cc1 (repeat unit),192.00
13,*Oc1ccc(S(=O)(=O)c2ccc(-c3ccc(-c4ccc(S(=O)(=O)c5ccc(*)cc5)cc4)cc3)cc2)cc1 (repeat unit),311.00
14,*Oc1ccc(S(=O)(=O)c2ccc(Oc3ccc(C(c4ccc(*)c(Br)c4)(C(F)(F)F)C(F)(F)F)cc3Br)cc2)cc1 (repeat unit),197.50
15,*Oc1ccc(S(=O)(=O)c2ccc(Oc3ccc(C(c4ccc(*)cc4)(C(F)(F)F)C(F)(F)F)cc3)cc2C(O)(C(F)(F)F)C(F)(F)F)c(C(O)(C(F)(F)F)C(F)(F)F)c1 (repeat unit),148.00
16,*Oc1ccc(S(=O)(=O)c2ccc(Oc3ccc(C4(c5ccc(*)cc5)C5CC6CC(C5)CC4C6)cc3)cc2)cc1 (repeat unit),297.00
17,*Oc1ccc(S(=O)(=O)c2ccc(Oc3ccc(Cc4ccc(*)cc4)cc3)cc2)cc1 (repeat unit),189.6
18,*c1ccc(-c2ccc(-c3ccc(-c4ccc(-c5ccc6c(c5)C(=O)N(c5ccc(Oc7ccc(C(C)(C)c8ccc(Oc9ccc(N%10C(=O)c%11ccc(*)cc%11C%10=O)cc9)cc8)cc7)cc5)C6=O)cc4)cc3)cc2)cc1 (repeat unit),236.00
19,*c1ccc(-c2nc3ccc(Oc4ccc(Oc5ccc(P(=O)(c6ccccc6)c6ccc(Oc7ccc(Oc8ccc9nc(*)c(-c%10ccccc%10)nc9c8)cc7)cc6)cc5)cc4)cc3nc2-c2ccccc2)cc1 (repeat unit),248.00
20,*c1ccc(Oc2ccc(C(c3ccc(Oc4ccc(-c5cccc(*)n5)cc4C(F)(F)F)cc3)(C(F)(F)F)C(F)(F)F)cc2)c(C(F)(F)F)c1 (repeat unit),153.00
21,*c1ccc(Oc2ccc(C3(c4ccc(Oc5ccc(N6C(=O)c7ccc(Oc8ccc(C9(c%10ccc(Oc%11ccc%12c(c%11)C(=O)N(*)C%12=O)cc%10)CCCCCCCCCCC9)cc8)cc7C6=O)cc5)cc4)CCC(C(C)(C)C)CC3)cc2)cc1 (repeat unit),254.00
22,*c1ccc(Oc2ccc(N3C(=O)CC4C(CC5C(=O)N(*)C(=O)C54)C3=O)cc2)cc1 (repeat unit),350.00
23,*c1ccc(Oc2ccc(Oc3ccc(-n4c(=O)c5cc6c(=O)n(*)c(=O)c6cc5c4=O)cc3)cc2)c(C(F)(F)F)c1 (repeat unit),272.20
24,*c1cccc(C(=O)c2cccc(-n3c(=O)c4cc5c(=O)n(*)c(=O)c5cc4c3=O)c2)c1 (repeat unit),321.00
